Experimental findings from PMC3118575 (Bioconjugate chemistry, 2011) are described below.

Series [1] concerns MMP- and αvβ3 integrin receptor-positive U87MG tumor. The series can be described thus: In vivo NIR fluorescence imaging of U87MG tumor-bearing mice. To be noted: for Clearance from the blood and other organs / Fluorescent signals in the tumor over time: 0.5 nmol injected.
Another series relates to U87MG cells. Put plainly: NIR fluorescence microscopy of fixed U87MG cells. It counts as cell-based, human.
The subject of the next series is MMP-2. The series can be described thus: In vitro MMP-2 enzyme specificity. Format: biochemical.
The subject of another series is U87MG tumor. Put plainly: Ex vivo biodistribution in tumors and organs. Details: species or system mice. The note with it: tumors and organs removed after 4 h time point; n = 3.

Regarding `N=C(N)NCCC[C@@H]1NC(=O)[C@H](CCCCN)NC(=O)[C@@H](Cc2ccc(O)cc2)NC(=O)[C@H](CC(=O)O)NC(=O)CNC1=O` [compound 7, reference compound], in series [1] (imaging for 4 h), the “Clearance from the blood and other organs” value is “slowly cleared from the blood and other organs”; the “Fluorescent signals in the tumor over time” value was “gradually increased fluorescent signals in the tumor”.

As to `CCN1C(=CC=CC=CC2=[N+](CCCCCC(=O)NCC(=O)N3CCC[C@H]3C(=O)N[C@@H](CC(C)C)C(=O)NCC(=O)N[C@H](C(=O)N[C@@H](CCCNC(=N)N)C(=O)NCC(=O)N[C@@H](CCCCN)C(=O)NCC(=O)NCC(=O)NCCCC[C@@H]3NC(=O)[C@@H](Cc4ccc(O)cc4)NC(=O)[C@H](CC(=O)O)NC(=O)CNC(=O)[C@H](CCCNC(=N)N)NC3=O)C(C)C)c3ccc4c(S(=O)(=O)O)cc(S(=O)(=O)O)cc4c3C2(C)C)C(C)(C)c2c1ccc1c(S(=O)(=O)[O-])cc(S(=O)(=O)O)cc21` [compound 5], the “Binding with receptor blocking by excess c(RGDyK)” value in the series with U87MG cells (30 min at 37 °C, blocking dose of c(RGDyK) 10 µM) is recorded as “significantly decreased binding”. Also, the “Fluorescent signals on cells” value with U87MG cells (30 min incubation at 37 °C, without blocking) is on record as “strong positive fluorescent signals on the cell membranes”. Besides, in series [1] (imaging for 4 h), the “Clearance from the blood and other organs” value is “slowly cleared from the blood and other organs”; the “Fluorescent signals in the tumor over time” value is “gradually increased fluorescent signals in the tumor”.

Take `CCN(CC)c1ccc2nc3ccc(N=Nc4ccc(N(C)CCCC(=O)NCCCC[C@H](NC(=O)CNC(=O)[C@H](CCCNC(=N)N)NC(=O)[C@@H](NC(=O)CNC(=O)[C@H](CC(C)C)NC(=O)[C@@H]5CCCN5C(=O)CNC(=O)CCCCC[N+]5=C(C=CC=CC=C6N(CC)c7ccc8c(S(=O)(=O)O)cc(S(=O)(=O)O)cc8c7C6(C)C)C(C)(C)c6c5ccc5c(S(=O)(=O)O)cc(S(=O)(=O)O)cc65)C(C)C)C(=O)NCC(=O)NCC(=O)NCCCC[C@@H]5NC(=O)[C@@H](Cc6ccc(O)cc6)NC(=O)[C@H](CC(=O)O)NC(=O)CNC(=O)[C@H](CCCNC(=N)N)NC5=O)cc4)cc3[n+](-c3ccccc3)c2c1` [compound 4]: the “Recovery of fluorescence at different MMP-2 concentrations” value in the series on MMP-2 (MMP-2 0, 2, 5, 10, 20, 40 nM, 80 min incubation, n = 3) is on record as “dependent on the MMP-2 concentration”. Moreover, the “Fluorescence recovery in the presence of MMP inhibitor” value with MMP-2 (MMP-2 with homophenylalanine-hydroxamine acid based broad spectrum MMP inhibitor) is on record as “inhibited”. The “NIR fluorescence signal from the tumor with MMP inhibitor” value in series [1] (3 nmol i.v., MMP inhibitor intratumorally injected 30 min before) is listed as “significantly reduced”. The “Tumor uptake with excess unlabeled c(RGDyK)” value in series [1] (30 min post-injection, c(RGDyK) 200 nmol) was “effectively blocked”. The “NIR fluorescent images compared to 6” value in series [1] (intravenous, 3 nmol of 4, from 1 h post-injection) is listed as “brighter NIR fluorescent images compared to 6”. Moreover, the “Visualization of MMP expression in MMP-positive tumor” value in series [1] (intravenous, 4 at 3 nmol, imaging for 4 h) was “enabled visualization of MMP expression in an MMP-positive tumor”. Moreover, in the series on U87MG tumor, the Ex vivo biodistribution result is on record as “predominantly activated in the tumors among other organs”.
